The source made the active and inactive calls. The calls are words filed in the database; no cut-off is given here.

In assay [1] the target is Microtubule-associated protein tau (Homo sapiens) (UniProt P10636). The assay is described as follows: Inhibition of tau K18 domain (unknown origin) assessed as inhibition of heparin-induced aggregation by measuring protein aggregation rate at 50 uM by thioflavin-T fluorescence assay relative to control. Also on record: scale not given: the % may be the effect or the level left.
Sequence of Microtubule-associated protein tau (Homo sapiens) (P10636 whole entry, the tested form may be a part): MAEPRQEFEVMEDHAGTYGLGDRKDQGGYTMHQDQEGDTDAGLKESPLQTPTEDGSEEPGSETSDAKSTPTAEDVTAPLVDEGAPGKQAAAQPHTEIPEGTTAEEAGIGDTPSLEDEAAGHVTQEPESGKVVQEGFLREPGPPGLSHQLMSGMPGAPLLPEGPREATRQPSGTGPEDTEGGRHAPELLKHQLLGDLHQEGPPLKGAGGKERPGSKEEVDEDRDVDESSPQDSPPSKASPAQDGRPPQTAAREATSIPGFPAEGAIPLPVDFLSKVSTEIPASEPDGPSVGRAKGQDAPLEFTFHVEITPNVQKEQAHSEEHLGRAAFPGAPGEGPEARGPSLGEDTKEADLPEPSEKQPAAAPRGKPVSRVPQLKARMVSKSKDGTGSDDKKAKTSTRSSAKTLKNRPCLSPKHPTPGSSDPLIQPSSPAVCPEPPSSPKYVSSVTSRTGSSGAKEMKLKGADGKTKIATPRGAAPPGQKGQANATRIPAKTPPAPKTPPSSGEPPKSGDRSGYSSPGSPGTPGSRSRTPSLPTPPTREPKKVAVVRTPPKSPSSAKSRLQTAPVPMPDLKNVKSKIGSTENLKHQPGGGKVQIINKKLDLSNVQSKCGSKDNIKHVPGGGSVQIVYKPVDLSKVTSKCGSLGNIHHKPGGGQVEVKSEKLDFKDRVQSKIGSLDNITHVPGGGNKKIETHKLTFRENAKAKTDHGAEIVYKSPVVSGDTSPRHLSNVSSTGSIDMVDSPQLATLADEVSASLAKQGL

Assay [2] shares this target. The assay is described as follows: Binding affinity to tau K18 domain (unknown origin) assessed as cysteine labelling efficiency by measuring free thiol ratio at 200 uM incubated for 24 hrs by Ellmans method relative to control.
For assay [3] the target is unchanged. The assay is described as follows: Inhibition of tau K18 domain (unknown origin) assessed as inhibition of heparin-induced aggregation by measuring protein aggregation rate at 500 uM by thioflavin-T fluorescence assay relative to control. Also on record: scale not given: the % may be the effect or the level left.
For assay [4] the target is unchanged. Kind of assay: Inhibition of tau K18 domain (unknown origin) assessed as inhibition of heparin-induced aggregation by measuring protein aggregation rate at 100 uM by thioflavin-T fluorescence assay relative to control. Also on record: scale not given: the % may be the effect or the level left.
For assay [5] the target is unchanged. The assay is described as follows: Inhibition of tau K18 domain (unknown origin) assessed as inhibition of heparin-induced aggregation by measuring protein aggregation rate at 1000 uM by thioflavin-T fluorescence assay relative to control. Also on record: scale not given: the % may be the effect or the level left.
Assay [6] has the same target. The assay is described as follows: Inhibition of tau K18 domain (unknown origin) assessed as inhibition of heparin-induced aggregation by measuring protein aggregation rate at 10 uM by thioflavin-T fluorescence assay relative to control. Also on record: scale not given: the % may be the effect or the level left.
Assay [7] has the same target. The assay is described as follows: Inhibition of tau K18 domain (unknown origin) assessed as inhibition of heparin-induced aggregation by measuring reduction in intensity at 215 nm with random coil conformation by CD spectrometry.
For a further assay, the species on record is Homo sapiens. The assay is described as follows: Inhibition of hexahistidine-tagged tau K18 domain C291S/C322S mutant (unknown origin) expressed in Escherichia coli BL21 (DE3) assessed as inhibition of heparin-induced aggregation by measuring protein aggregation rate at 10 uM by thioflavin-T fluorescence assay relative to control. Also on record: scale not given: the % may be the effect or the level left.

Assay [8] has as its target Microtubule-associated protein tau (Homo sapiens) (UniProt P10636). The assay is described as follows: Inhibition of tau K18 domain (unknown origin) assessed as inhibition of heparin-induced aggregation by measuring protein aggregation rate at 250 uM by thioflavin-T fluorescence assay relative to control. Also on record: scale not given: the % may be the effect or the level left.

For assay [9] the target is unchanged. The assay is described as follows: Covalent binding affinity to tau K18 domain monomer (unknown origin) assessed as labelling at Cys291 residue incubated for 24 hrs and measured following trypsin digestion by LC-MS/MS analysis.
Assay [10] has the same target. Kind of assay: Covalent binding affinity to tau K18 domain monomer (unknown origin) assessed as labelling at Cys322 residue incubated for 24 hrs and measured following trypsin digestion by LC-MS/MS analysis.
For assay [11] the target is unchanged. Kind of assay: Inhibition of tau K18 domain (unknown origin) assessed as inhibition of heparin-induced aggregation by measuring increase in brightness by transmission electron microscopy.
For assay [12] the target is unchanged. Kind of assay: Binding affinity to tau K18 domain (unknown origin) assessed as cysteine labelling at 250 uM incubated for 18 hrs by 15N-HSQC NMR spectroscopy.

As to `C=CS(=O)(=O)Cc1ccc(-c2ccc(/C=C3/SC(=S)N(CCC(=O)OCC)C3=O)o2)cc1`, the Activity was found to be 75.4% in assay [1]; 44.7% in assay [2]; 40.1% in assay [3]; 60.3% in assay [4]; 29.2% in [5]; 29.2% in [6]. The Activity was 83.4% in the assay filed under Homo sapiens and 50.8% in [8]. In addition, in [7], the inhibition result was “Active”.

For `C=CS(=O)(=O)Cc1c2ccccc2cc2ccccc12`, the Activity in [1] worked out at 78.2%; in assay [2] it was 34.4%; in assay [3] it was 43.9%; in assay [4] it was 72%; in assay [5], 21.3%; in assay [6] it was 21.3%. In addition, the values for the Activity (in the assay filed under Homo sapiens; in assay [8]) were 69.4% and 54.1%, respectively. The outcome in assay [9] and in assay [10] was Active.

As for H-DVWMINKKRK-OH, the Activity in assay [6] is 38.1%; in the assay listed under Homo sapiens, 29.4%.

In the case of `C=CS(=O)(=O)NCc1cc(C(F)(F)F)cc(C(F)(F)F)c1`, in assay [6], the Activity amounted to 96.9%.

With `C=CS(=O)(=O)c1cc(C(F)(F)F)cc(C(F)(F)F)c1`, the Activity in assay [6] turned out to be 107%.

In the case of `C=CS(=O)(=O)Cc1cccc2cccnc12`, in assay [6], the Activity was determined as 102%.

Regarding `C=CS(=O)(=O)Nc1ccc(C(=O)NCCCCCC(=O)N[C@@H](CCC(=O)O)C(=O)N[C@@H](C)C(=O)N[C@@H](C)C(=O)N[C@@H](CCC(=O)O)C(=O)N[C@@H](C)C(=O)N[C@@H](CCCCN)C(=O)N[C@@H](C)C(=O)N[C@@H](C)C(=O)NC(CCCCn2cc(CNC(=O)[C@H](Cc3c[nH]c4ccccc34)NC3C(=O)c4ccccc4C(=O)C3Cl)nn2)C(=O)O)cc1` (stereo partly drawn), the values for the Activity (in [2]; in [6]; in the assay filed under Homo sapiens) were 39.7%, 15.7% and 57.9%, respectively. Besides, in [9], the result was Active. Also, the inhibition result in [11] is “Active”.

Take `C=CS(=O)(=O)NCCNC(=O)O[C@H]1CC[C@@]2(C)C(=CC[C@H]3[C@@H]4CC[C@H]([C@H](C)CCCC(C)C)[C@@]4(C)CC[C@@H]32)C1`: the values for the Activity (in [2]; in [6]; in the assay listed under Homo sapiens) were 56.7%, 39.7% and 100%, respectively. Also, the inhibition entry in assay [11] is “Active”.

As for `C=CS(=O)(=O)Cc1ccc2ccccc2c1`, the Activity in assay [6] was found to be 111%.

Turning to `C=CS(=O)(=O)c1ccccc1`, the Activity in [6] is 97.7%.

On to `C=CS(=O)(=O)Cc1cc(C(F)(F)F)cc(C(F)(F)F)c1`, for which the Activity in assay [1] is 94.4%; in assay [2], 66.3%; in assay [3], 43.1%; in assay [4] it was 75.3%; in assay [5] it was 39.8%; in assay [6], 39.8%. Besides, the Activity in the assay listed under Homo sapiens came out at 86.7%; in assay [8], 62.9%. The outcome in assay [9], in assay [10] and in assay [12] was Active.

As to `C=CS(N)(=O)=O`, the Activity in [6] was found to be 110%.

On to `C=CS(=O)(=O)Cc1ccc(C(=O)c2ccccc2)cc1`, for which the Activity in [6] stood at 97.3%.

The values above are taken from ChEMBL document CHEMBL5154730, “A covalent strategy to target intrinsically disordered proteins: Discovery of novel tau aggregation inhibitors” (Eur J Med Chem, 2022).
